Measurements as given in patent publication US20100015126A1, “Methods of Binding of Cross-Beta Structures By Chaperones” (priority 2006, published 2010).

Tested on: HUVECs
Assay: FACS: binding of misfolded proteins and BiP to HUVECs
Assay type: cell-based, human
Protocol: For these experiments HUVECs were isolated by trypsinization. After trypsinization cells were collected in RPMI 1640, containing P/S and 10% FCS and centrifuged. After centrifugation cells were resuspended in RPMI medium without FCS at a concentration of 1.250.000 cells/250 μl. Individual 4-ml tubes (polypropylene, Greiner), containing 250 μl cell suspensions were made. To each tube 75 μl of a sample, containing either, • a. buffer (PBS) only, or • b. 25 μl PBS+50 μl BiP (1.16 mg/ml), or • c. 50 μl buffer with 25 μl oxLDL (1 mg/ml), or • d. 74 μl buffer with 1 μl BSA-AGE (25 mg/ml), or • e. 24 μl PBS+1 μl BSA-AGE (25 mg/ml)+50 μl BiP (1.16 mg/ml), or • f. 25 μl oxLDL (1 mg/ml)+50 μl BiP (1.16 mg/ml), • g. 1.6 μl dIgIV-65 (20 mg/ml)+73.4 μl PBS • h. […]
was added. Subsequently, the cells were incubated with the sample for approximately 30 minutes at 4° C. Next, cells were pelleted by centrifugation and the supernatant was discarded. Cells were washed subsequently with FACS buffer (PBS/0.5% BSA/0.05% m/v NaN3) at 4° C. and resuspended in FACS-buffer at approximately 1*10^5 cells/100 μl for subsequent analysis. Cell death was determined by adding 3 μl 7-aminoactinomycin D (7AAD) solution (prepared according to standard procedures). Binding of sample BSA-AGE (see elsewhere in this application for preparation details) was determined with anti-AGE monoclonal antibody 4B5 (10 μg/ml) and, after washing, with goat anti-mouse PE secondary antibodies (Jackson Immunoresearch, West Grove, USA). Binding of BSA-AGE was also assessed using the intrinsic fluorescence of BSA-AGE in the PE channel. Binding of oxidized LDL (oxLDL, oxidized for 56% following incubation with FeSO4; specific enhancement of Thioflavin T fluorescence) was determined with rabbit serum with anti-ApoB100 polyclonal antibodies at a concentration of 160 μg/ml and, after washing the cells, with FITC-labelled goat anti-rabbit antibodies (1:200, Jackson). Binding of dIgIV-65 was assessed by using anti-Human IgG antibody. BiP binding was determined using the earlier mentioned anti-FLAG antibody (M2, Sigma-Aldrich).

## BSA-AGE
Absence of BiP, 30 minutes at 4° C.
  Binding of misfolded protein to ECs (MFI ratio): 13.8
Presence of BiP
  Binding of misfolded protein to ECs (MFI ratio): 10.2
